One data set has as its system Bacillus subtilis. Also noted: method as in earlier work. The settings on record: cited from earlier work.
The nature of data set [1]: Cell viability by the Alamar Blue assay (cytotoxicity). The settings on record: mouse, RAW 264.7, 24 h, mean ± SD, read-out: Cytotoxicity (LC50 in μM) (n = 8). The class given is cell-based. How it is done:
(§1) RAW 264.7 macrophages were grown in 175 cm^2 flasks on DMEM containing 5% foetal bovine serum (FBS) that was supplemented with penicillin (100 μg/mL), streptomycin (100 μg/mL) and L-glutamine (2 mM). The cell line was maintained in 5% CO2 at 37 °C, with media being replaced every 3–4 days. Once cells had grown to confluence in the culture flask, they were removed using a rubber policeman, as opposed to using trypsin, which can remove membrane-bound receptors. The cell suspension was concentrated by centrifugation for 3 min at 900 rpm and re-suspended in a small volume of fresh DMEM (with 1% antibiotics and 5% FBS); cell densities were estimated using a Neubauer counting chamber. The cell concentration was adjusted with DMEM (with 1% antibiotics and 5% FBS) to obtain 60,000 cells/100 μL cell suspension. An aliquot of 100 μL of this cell suspension was dispensed into the wells of 96-well plates. Plates were incubated at 37 °C, 5% CO2 for 18 h before the activation experiments were carried out.
(§2) For assays, 90 μL of each concentration of compounds (8 concentrations made by serial dilution from 0 µg/mL to 36 µg/mL compound in DMEM) were added an hour prior to addition of 10 µL of activator. A combination of 10 μg·mL^−1 LPS and 10 U·mL^−1 (1 unit = 0.1 ng/mL) IFN-γ, were used for activation. After activation, the cells were incubated for 24 h at 37 °C and then NO, TNF-α and cell viability was determined. Unactivated cells (exposed to media alone) were used as negative control and activated cells as positive control.
One hundred microlitres of Alamar Blue solution (10% Alamar Blue (Resazurin) in DMEM media) was added to each well, incubated at 37 °C for 2 h. After incubation, fluorescence intensity was measured with the microplate reader (excitation at 530 nm and emission at 590 nm) and results were expressed as a percentage of the intensity of that in control cells, after background fluorescence was subtracted.
(§3) Data calculations were performed using MS-Excel 2010 software. IC50 values were obtained by using the sigmoidal dose–response function in GraphPad Prism. The results were expressed as mean ± standard deviation (SD).

Data set [2] has as its system TNF-α production in LPS + IFN-γ activated RAW 264.7 macrophages. As to the kind of experiment: Inhibition of LPS + IFN-γ induced TNF-α production (ELISA). Format: cell-based. The settings on record: for IC50: Mus musculus, read-out: TNF-α Inhibition (IC50 in µM) (n = 3). How it is done: as §1, §2
The diluted supernatants were used for determination of TNF-α using a commercial sandwich ELISA (Peprotech) according to the manufacturer’s protocol. In brief, the capture antibody was used at a concentration of 1.5 μg·mL^−1 in PBS (1.9 mM NaH2PO4, 8.1 mM Na2HPO4, 154 mM NaCl) (pH 7.4). Serial dilutions of TNF-α standard from 0 to 10,000 pg·mL^−1 in diluent (0.05% Tween-20, 0.1% BSA in PBS) were used as internal standard. TNF-α was detected with a biotinylated second antibody and an Avidin peroxidase conjugate with TMB as detection reagent. The colour development was monitored at 655 nm, taking readings every 5 min. After approximately 30 min the reaction was stopped using 0.5 M sulphuric acid and the absorbance was measured at 450 nm using a POLARstar Omega microplate reader (BMG Labtech, Mornington, Australia), expressed as a percentage in control cells after conversion of the concentrations, using a standard curve constructed with defined concentrations of TNF-α. Curve fitting of this standard curve and extrapolation of experimental data were performed using non-linear regression analysis.
as §3
(In general: In an ELISA, binding on a coated surface is turned into a signal by an enzyme label.)

The subject of data set [3] is NO production in LPS + IFN-γ activated RAW 264.7 macrophages. The experiment in a line: Inhibition of LPS + IFN-γ induced nitric oxide production (Griess assay). Format: cell-based. The settings on record: for IC50: Mus musculus, read-out: NO Inhibition (IC50 in μM) (n = 8); for anti-inflammatory activity (in words): NO and TNF-α. How it is done:
as §1, §2
Nitric oxide was determined by Griess reagent quantification of nitrite. Griess reagent was freshly made up of equal volumes of 1% sulfanilamide and 0.1% napthyethylene-diamine in 5% HCl. From each well, 50 µL of supernatant was transferred to a fresh 96-well plate and mixed with 50 µL of Griess reagent and measured at 540 nm in a POLARstar Omega microplate reader (BMG Labtech, Mornington, Australia). The concentration of nitrite was calculated using a standard curve with […] (0–500 μM), and linear regression analysis.
as §3
On the technique in general: The Griess reaction detects nitrite, a stable product of nitric oxide.

A further data set has as its system SCC2095 OSCC cells. Also noted: method as in doi:10.1016/j.jff.2015.07.017. The settings on record: read-out: suppression of proliferation IC50; cited from earlier work.
In data set [4] the test system is 12-O-tetradecanoylphorbol 13 acetate (TPA)-induced topical inflammation in mice ears. Also noted: method as in PMID 16697209. The settings on record: cited from earlier work.
Another data set deals with SCC4 OSCC cells. Also noted: method as in doi:10.1016/j.jff.2015.07.017. The settings on record: read-out: suppression of proliferation IC50; cited from earlier work.
For data set [5], the system named is NO production in LPS-stimulated RAW 264.7 cells. Also noted: method as in PMID 19557361. The settings on record: cited from earlier work.
[6] abbreviates: RAW 264.7 macrophages activated with LPS and IFN-γ.
Setting [7] is: RAW264.7, RAW 264.7, LPS + IFN-γ, 24 h, ELISA, mean ± SD.
Setting [8] is: RAW264.7, RAW 264.7, LPS + IFN-γ, 24 h, Griess assay, mean ± SD.

Like-named read-outs stand apart in the source and are kept apart here.

As to `C=C(C)C1CCC2(C(=O)O)CCC3(C)C(CCC4C5(C)CC(=O)C(O)C(C)(C)C5CCC43C)C12` (stereo not shown) [2-ketobetulinic acid, reference compound], the antibacterial activity entry in the data set with Bacillus subtilis was “showed antibacterial activity”.

Regarding `C=C(C)[C@@H]1CC[C@]2(C(=O)O)CC[C@]3(C)[C@H](CC[C@@H]4[C@@]5(C)[C@@H](C(=O)O)[C@H](O)C(C)(C)[C@@H]5CC[C@]43C)C12` (stereo partly shown) [Compound 1, emmolic acid], the CC50 at 24 h in data set [1] is greater than 36 µM. In addition, the IC50 in data set [2] (RAW264.7, 24 h) was greater than 36 µM; in data set [3] (RAW264.7, 24 h), greater than 36 µM. The “anti-inflammatory activity (in words)” value in data set [3] (RAW 264.7, LPS + IFN-γ) is “inactive”.

As to `C=C(C)[C@@H]1CC[C@]2(C(=O)O)CC[C@]3(C)[C@H](CC[C@@H]4[C@@]5(C)C[C@@H](O)[C@H](O)C(C)(C)[C@@H]5CC[C@]43C)[C@@H]12` [Compound 2, alphitolic acid], the CC50 at 24 h in data set [1] stood at 18.6 ± 0.8 µM. Moreover, the IC50 was 22.7 ± 1.1 µM in data set [2] (RAW264.7, 24 h); 17.6 ± 0.7 µM in data set [3] (RAW264.7, 24 h); 15 µM in the data set on SCC2095 OSCC cells; 12 µM in the data set on SCC4 OSCC cells. Also, the “inhibition of TPA-induced topical inflammation” value in data set [4] was “inhibit”.

As for `C=C(C)[C@@H]1CC[C@]2(C(=O)O)CC[C@]3(C)[C@H](CC[C@@H]4[C@@]5(C)C[C@@H](OC(=O)/C=C/c6ccc(O)cc6)[C@H](O)C(C)(C)[C@@H]5CC[C@]43C)[C@@H]12` [Compound 3, trans-coumaroyl alphitolic acid], the CC50 at 24 h in data set [1] came out at 4.8 ± 0.9 µM. For the same compound, the IC50 in data set [2] (RAW264.7, 24 h) was 10.9 ± 2.3 µM; in data set [3] (RAW264.7, 24 h), 1.7 ± 0.3 µM. Besides, the “increase in potency of NO inhibition compared with compound 2” value in data set [3] (RAW 264.7, LPS + IFN-γ) is “ten-fold”.

Regarding `C=C(C)[C@@H]1CC[C@]2(C(=O)O)CC[C@]3(C)[C@H](CC[C@@H]4[C@@]5(C)C[C@@H](OC(=O)/C=C\c6ccc(O)cc6)[C@H](O)C(C)(C)[C@@H]5CC[C@]43C)[C@@H]12` [Compound 4, cis-coumaroyl alphitolic acid], the CC50 at 24 h in data set [1] amounted to 8 ± 0.3 µM. Also, the IC50 in data set [2] (RAW264.7, 24 h) came out at 5.6 ± 0.4 µM; in data set [3] (RAW264.7, 24 h), 3.5 ± 0.5 µM. Also, the “inhibition of TNF-α (in words)” value in data set [2] (RAW 264.7, LPS + IFN-γ) is listed as “strong inhibition”.

`C=C(C)[C@@H]1CC[C@]2(C(=O)O)CC[C@]3(C)[C@H](CC[C@@H]4[C@@]5(C)CC[C@H](O)C(C)(C)[C@@H]5CC[C@]43C)[C@@H]12` [Compound 5, betulinic acid]: the CC50 at 24 h in data set [1] (setting [6]) was determined as 29.1 ± 4.4 µM. The IC50 was determined as 23.5 ± 3.7 µM in data set [2] (setting [7]) and 8.3 ± 1 µM in data set [3] (setting [8]). The antibacterial activity result in the data set with Bacillus subtilis is “showed antibacterial activity”.

For `C=C(C)[C@@H]1CC[C@]2(C(=O)O)CC[C@]3(C)[C@H](CC[C@@H]4[C@@]5(C)[C@@H](C(=O)O)[C@H](OC(C)=O)C(C)(C)[C@@H]5CC[C@]43C)C12` (stereo partly shown) [Compound 6, emmolic acid acetate], in data set [1], the CC50 at 24 h amounted to 13.1 ± 2.5 µM. Moreover, the results for the IC50 in data set [2] (setting [7]) and in data set [3] (setting [8]) were greater than 36 µM and 14.7 ± 0.6 µM, respectively. Further, the “anti-inflammatory activity (in words)” value in data set [3] (RAW 264.7, LPS + IFN-γ) was “moderate anti-inflammatory activity”.

As for `O=C(O)Cc1ccccc1Nc1c(Cl)cccc1Cl` [Diclofenac, diclofenac sodium, reference compound], the CC50 at 24 h in data set [1] (setting [6]) is greater than 333 µM. For the same compound, the IC50 in data set [2] (setting [7]) is greater than 333 µM; in data set [3] (setting [8]) it was 217 ± 43 µM.

On to `CC(C)Cc1ccc(C(C)C(=O)O)cc1` (stereo not shown) [Ibuprofen, ibuprofen, reference compound], for which the CC50 at 24 h in data set [1] (setting [6]) was greater than 1500 µM. In addition, the IC50 in data set [2] (setting [7]) worked out at 723 ± 261 µM; in data set [3] (setting [8]), 1160 ± 133 µM.

As for `C=C(C)C1CCC2(C(=O)O)CCC3(C)C(CCC4C5(C)CCC(OC(=O)C=Cc6ccc(O)c(O)c6)C(C)(C)C5CCC43C)C12` (stereo not shown) [betulinic acid 3-O-caffeate], the “NO inhibition (in words)” value in data set [5] is recorded as “most active compound”.

Values taken from PMC6273140, “Anti-Inflammatory Chemical Profiling of the Australian Rainforest Tree Alphitonia petriei (Rhamnaceae)” (Molecules, 2016).
